According to PMC10562414, “GLP-1R signaling neighborhoods associate with the susceptibility to adverse drug reactions of incretin mimetics” (Nature Communications, 2023):

Test system: GLP-1R-expressing HEK293 cells + Dyngo-4A (phosphoproteome)
Assay: Phosphoproteomics, GLP-1R-transfected cells with internalization inhibitor Dyngo-4A, 30 min
Format: cell-based, human
Settings: 1 μM, 30 min, vs vehicle, n = 3
Description: P values were calculated by a two-sided unpaired t-test.
HEK293 cells (350,000 cells/mL) were transfected in suspension using 3 μg of linear PEI (MW 25,000) per 1 μg of plasmid DNA and seeded onto poly-D-lysine-coated 60 mm dishes at a density of 1,750,000 cells per dish. After a 24-h incubation, cells were washed twice with PBS and placed in starvation media (DMEM with penicillin/streptomycin). After a 48-h incubation, cells were washed twice with HBSS and maintained in the same buffer. […] Cell extracts were prepared as previously described[64]–[66]. In short, 200 μL of the lysis buffer preheated at 95 °C (4% sodium dodecyl sulfate in 50 mM Tris adjusted to pH 8.5) was added to the cells. The samples were then denatured at 95 °C for 10 min, placed on ice and then sonicated using a probe sonicator (3 sec on, 3 sec off pulse, 1 min, 30% amplitude) (Branson). Lysate protein concentration was determined using the Pierce bicinchoninic acid assay kit (Thermo Fisher Scientific) according to the manufacturer’s instructions. The lysates were reduced using 5 mM dithiothreitol for 1 h at room temperature and alkylated using 15 mM iodoacetamide for 1 h at room temperature in the dark. Proteins were precipitated and digested on beads using MagReSyn Amine magnetic beads (ReSyn Biosciences) according to the manufacturer’s instructions. Protein digestion was conducted overnight at 37 °C with lysyl endopeptidase (LysC, Wako) (1:150 LysC/protein, w/w) and trypsin (1:300 trypsin/protein, w/w). 20% TFA, 2 M glycolic acid in 80% ACN were added to the samples at a 1:1 ratio for phosphopeptide enrichment using MagReSyn TiO2 magnetic beads (ReSyn Biosciences) according to the manufacturer’s instructions. The enriched phosphopeptides were dried overnight in a SpeedVac, resuspended into 5% formic acid (FA), desalted using StageTip (Thermo Fisher Scientific) according to the manufacturer’s instructions and dried in a SpeedVac. The experiment was performed in biological triplicates.
All parameters and settings regarding the acquisition of the proteomics data can be found in Supplementary Data 11, 12. For data acquisition, the instrument was set to peptide mode, with a trapping pressure set as low (2mTorr). An EASY-Spray Source (Thermo Fisher Scientific) was used and the column temperature was maintained with the integrated, temperature-controlled heater at 55 °C throughout the experiment. For the data presented in Fig. 5d, the column was heated at 50 °C following the manufacturer’s instructions (IonOpticks).
Acquired raw files were converted to mzML format by MSConvert (version 3.0.21258)[67] applying peak picking of the mass spectra with the vendor-provided algorithm (Thermo Fisher Scientific). The mzML files were analyzed using the FragPipe GUI v18 for both library and DIA search. […] Trypsin with up to 2 missed cleavages was set as digestion enzyme, oxidation of methionine, acetylation of the N-terminus and phosphorylation on serine, threonine and tyrosine (maximal occurrence was set to three) were set as variable modifications. Carbamidomethylation of cysteine residues was set as a fixed modification. Peptide length was restricted to 7 to 50 amino acids, and 500 to 5000 Da. The precursor tolerance was set to ±20 ppm, fragment mass tolerance to 20 ppm and MSBooster was enabled. The resulting peptide-spectrum matches were adjusted to a 1% false discovery rate with Percolator[69] as part of the Philosopher toolkit (v4.4)[70] and converted to a spectra library. DIA files were analyzed by DIA-NN 1.8.1[71], [72] using the previously generated library and monitor-command mode. Peptide quantification was performed based on the fragment elution profiles from the MS2 level (area under the curve).
All further data processing was performed in R (version 4.2.1). Only phosphopeptides with a localization score of at least 0.75 were considered for further analysis. […]

N#Cc1ccc(COc2cccc(C3CCN(Cc4nc5ccc(C(=O)O)cc5n4C[C@@H]4CCO4)CC3)n2)c(F)c1 [Danuglipron]
log2.foldchange, PABPN1 S19 (Dyngo internalization inhibitor (50 μM, 30 min pre), p 0.975742): 0.005523
log2.foldchange, EIF3J S13 (Dyngo internalization inhibitor, p 0.0121456 (passed all criteria)): 2
log2.foldchange, EIF3J S11;S13 (Dyngo internalization inhibitor, p 0.107013): 0.1859
log2.foldchange, VPS51 S18 (Dyngo internalization inhibitor, p 0.460124): -0.1867
log2.foldchange, POLE4 S9;T11 (Dyngo internalization inhibitor, p 0.765877): -0.2937
